In US8828942B2, “Means for treating synucleinopathies” (Affiris AG, priority 2009, dated 2014):
“Also recorded” adds a separate entry of the source.

Key:
[1] = test system: monoclonal antibody 12-9-9; assay: In vitro inhibition assay (ELISA); type: binding, mouse; design: key: 0: no competition of 12-9-9 detectable in ELISA; 1: weak competition: competition of mimotope weaker compared to the minimal original sequence p5436; 2: strong competition: competition of mimotope similar to the minimal original sequence p5436; details: competition capacity in ELISA, peptide 400 μg/ml to 3 μg/ml, plates coated with p5436 and p4446
Protocol: Different amounts of peptides (concentrations ranging from 400 μg/ml to 3 μg/ml (serial dilutions), derived from Phage Display were incubated with the monoclonal antibody that was used for the screening procedure. Peptides diminishing subsequent binding of the antibody to the original human alpha-synuclein epitope (p5436) and the human alpha-synuclein protein (p4446) coated on ELISA plates were considered as inhibiting in this assay.

[2] = test system: recombinant human alpha-synuclein protein; assay: In vivo testing of mimotopes: serum titer against alpha-synuclein (ELISA); details: mice immunized with peptide-KLH, alum, OD halfmax
Protocol: (§1) Inhibiting as well as non-inhibiting peptides were coupled to KLH and injected into mice (wildtype C57/B16 or BalbC mice; subcutaneous injection into the flank) together with an appropriate adjuvant (aluminium hydroxide). Animals were vaccinated 3 times in biweekly intervals and sera were taken biweekly as well. Titers to injected peptides as well as to an irrelevant peptide were determined with every serum. Titers against the recombinant human alpha-synuclein protein and recombinant human beta-synuclein were determined starting with Serum 2 respectively. In general sera were analysed by reaction against peptides coupled to Bovine Serum Albumin (BSA) and recombinant full length proteins which were immobilised on ELISA plates. Titers were determined using anti mouse IgG specific antibodies. For examples of immunogenicity against injected peptide and alpha-synuclein see Table 5 and Table 6.
(§2) Female C57/B16 mice or BalbC, 5-6 mice per group, were subcutaneously immunized with 30 μg peptide coupled to KLH. Control groups were injected with PBS or the original epitope. As adjuvant alum was used. The peptides administered were all able to bind to monoclonal antibodies specifically binding aa100-109 of human alpha-synuclein although some of the peptides did inhibit the binding of the original epitope to its parental antibody in vitro only weakly (in an in vitro inhibition assay). The in vitro ELISA assay to determine the antibody titer was performed with sera of single mice (see Tab. 5) after each vaccination in a two week interval. The wells of the ELISA plate were coated with mimotope-BSA conjugates. The positive control was performed by reaction of the parental antibody with the respective mimotope-BSA conjugate. The detection was performed with anti-mouse IgG. Additionally, recombinant proteins were immobilised on ELISA plates and sera reacted accordingly. For all mimotopes tested in C57/B16 mice or BalbC, antibodies reacting to the individual injected peptide could be detected after repeated vaccination. Although not all mice induced higher titer against alpha-synuclein (see tab. 5 for examples).

[3] = test system: monoclonal antibody 12-9-9; assay: In vitro binding assay (ELISA) with monoclonal antibody 12-9-9; design: species or system mouse; key to Binding: 0: no binding to 12-9-9 detectable in ELISA; 1: weak binding: binding of mimotope weaker compared to the minimal original sequence p5436; 2: strong binding: binding of mimotope similar to the minimal original sequence p5436; details: for Binding: binding capacity to 12-9-9 in ELISA, peptide-BSA coated (1 μM), compared with p5436; for detection/binding by monoclonal antibody 12-9-9 in ELISA: result in words
Source text: A monoclonal antibody derived from the fusion “AFFiRiS 6”: Balb/c mice (Charles River) were immunized with original alpha-synuclein epitope LGKNEEGAPQ-C (SEQ ID NO:3) coupled to BTG (bovine thyroglobuline) and CFA (complete Freund's adjuvant; first injection) as well as IFA (incomplete Freund's adjuvant; 3 booster injections) as adjuvant. LGKNEEGAPQ-peptide-specific (SEQ ID NO: 203) antibody-producing hybridomas are detected by ELISA (LGKNEEGAPQC-peptide-coated (SEQ ID NO: 3)ELISA plates). Human alpha-synuclein (recombinant protein, p4446) is used as positive control peptide: hybridomas recognizing the recombinant protein immobilized on ELISA plates are included because they are binding both peptide and full length alpha-synuclein specifically. […] The Hybridoma clone (12-9-9; IgG1, kappa) was analysed for specific detection of the natural human alpha-synuclein epitope LGKNEEGAPQ. (SEQ ID NO: 203). 12-9-9 recognizes the injected epitope as well as full length alpha-synuclein protein (recombinant protein; obtained from rPeptide, Bogart, Ga., USA) in ELISA (see FIG. 2). […] Thus the minimal required epitope for binding has been defined as KNEEGAP (SEQ ID NO: 139).
Peptides derived from Phage Display as well as N-terminally truncated variants thereof were coupled to BSA and bound to ELISA plates (1 μM) and subsequently incubated with the monoclonal antibody that was used for the screening procedure to analyse binding capacity of identified peptides (see FIG. 4).

[4] = In vivo testing of mimotopes: serum titer against injected peptide (ELISA); details: mice, 30 μg peptide coupled to KLH, alum, s.c.; titer by ELISA as OD halfmax
Protocol: as §1, §2

Row | Sequence | Competition [1] | class of immunogenicity: a Syn [2] | Binding [3] | Titer in animals OD halfmax injected pep. [4] | detection/binding by monoclonal antibody 12-9-9 in ELISA [3]
1 | KNDEGAPC [p5445, mimotope] | 2 | 2 (peptides inducing an immune response with OD halfmax higher than 1000.) | 2 | 26000 | 
2 | KNEEGAPC [p5436, reference compound] | 2 | 2 (peptides inducing an immune response with OD halfmax higher than 1000.) | 2 | 10000 | detected similarly; also recorded: retained full binding capacities
3 | LGKNEEGAPC [p5402, reference compound] | 2 | 2 (peptides inducing an immune response with OD halfmax higher than 1000.) | 2 | 20000 | retained full binding capacities
4 | RNEEGAPC [p5443, mimotope] | 2 | 1 (peptides inducing an immune response with OD halfmax between 1000 and 51.) | 2 | 9000 | 
5 | KNAEGAPC [p5439, mimotope] | 1 | 1 (peptides inducing an immune response with OD halfmax between 1000 and 51.) | 2 | 8000 | detected similarly
